These results are taken from PMC8333062, “Chemical tools for epichaperome-mediated interactome dysfunctions of the central nervous system” (Nature Communications, 2021).

Where “and” joins values, the source holds several entries; their conditions need not be identical. Identical values can stand only once.

In data set [1] the test system is epichaperome +ve (MDA-MB-468) tumors. The experiment in a line: Small-animal PET, xenografted tumors. Format: in vivo, mouse. The conditions noted are these: 48 h post-injection. The protocol:
(§1) We opted for the use of xenografted MDA-MB-468 and ASPC1 tumors in mice (target-positive versus target-negative, respectively, with equal total HSP90 levels, Fig. 3b). Because PU-HZ151 rapidly distributes throughout the body (see Fig. 2a and further below), and taking in consideration the high concentration of chaperones in cells (>100 µM)[41], a bolus injection creates a rapid equilibrium mixture state. Subsequent to reaching an ‘equilibrium’ state throughout the body, PU-HZ151 then rapidly clears from plasma, which initiates a body-wide dilution state. Recording the differential concentration-time curves for PU-HZ151 in the two tumor types offers the relative dissociation rate constants, but most importantly, informs on probe’s epichaperome selectivity (Fig. 3a).
(§2) For subcutaneous xenografts, mice were anesthetized with 2% isoflurane (Baxter Healthcare) (2 l min^−1 medical air). […]
(§3) Orthotopic GBM xenografts in mice were established by injection of 5 × 10^5 cells in 2 μL PBS. […] PET data for each mouse was recorded using static scans of 15 min and acquired at the indicated times post injection. Quantification and %ID g^−1 values were calculated by manually drawing regions of interests in three different frames and determining the average values using ASI Pro VM™ MicroPET Analysis software (Siemens Medical Solutions, Knoxville, TX).

Data set [2] deals with epichaperome -ve (ASPC1) tumors. The experiment in a line: Small-animal PET, xenografted tumors. The class given is in vivo, mouse. Conditions: 48 h post-injection. The protocol: as §1, §2, §3
The target of a further data set is T1, CYP2C9 (Homo sapiens, UniProt P11712).
T1 construct: PU-HZ151 (1 µM) was incubated with human liver microsomes (0.5 mg protein mL^−1); tissue Life Technologies HMMCPL; host or cells: human liver microsomes
The experiment in a line: Cytochrome P450 profiling, sulfaphenazole. The class given is in vitro ADME. Conditions: for % PU-HZ151 remaining: Sulfaphenazole. The procedure: To identify cytochrome P450 enzymes responsible for PU-HZ151’s metabolism in human liver microsomes the following procedure was followed. Phosphate buffer (100 mM, pH 7.4) was prepared monthly and stored at 4 °C. Frozen stock solutions of human liver microsomes (Life Technologies; Cat# HMMCPL) were used once after thawing and were not refrozen. NADPH stock solution (50 mM) in distilled water was prepared fresh daily. […] The stock solutions of these P450 inhibitors were prepared in DMSO. […] The concentration of the chemical inhibitors used in the assay were furafylline (10 μM), tranylcypromine (2 μM), ketoconazole (1 μM), troleandomycin (20 μM), orphenadrine (50 μM), montelukast (3 μM), sulfaphenazole (10 μM), benzylnirvanol (1 μM), quinidine (1 μM), and 1-aminobenzotriazole (1 mM) for all the P450 enzymes. Timing of the reactions was started following the addition of NADPH/magnesium chloride mix and PU-HZ151. Time-dependent chemical inhibitors (furafylline, troleandomycin, orphenadrine, and 1-aminobenzotriazole) were preincubated with human microsomes in the presence of NADPH and magnesium chloride for 15 min before the addition of PU-HZ151 and timing of reactions was started after addition of PU-HZ151. […] Following brief vortexing and centrifugation, a 200 µL aliquot of the supernatant was transferred to a tube, and 10 µL of haloperidol (1 µg mL^−1) as internal standard was added. Following brief vortexing and centrifugation, 50 µL of supernatant was added to a 96-well plate for subsequent LC-MS/MS analysis. PU-HZ151 was similarly tested as above in the absence of CYP inhibitors for comparative purposes. All samples were assayed in duplicate. […] This was similarly performed for incubations of PU-HZ151 performed in the absence of CYP inhibitor.

The next data set has as its system MDA-MB-468 cells. As to the kind of experiment: Cell viability, ATP levels 72 h. Format: cell-based, human. Also on record: key to Cell viability (ATP levels): ATP levels as % of vehicle (DMSO) control. Conditions: replicates; for Cell viability (ATP levels): MDA-MB-468. The procedure:
Supplementary Fig. 15: PU-HZ151 activity in cells is unaffected by Pgp overexpression. a Two Pgp-positive cells lines, Kasumi-1 and HepG2, were tested for epichaperome-positivity. β-Actin, loading control. b ATP levels in cell treated for 72 h with 0 to 1 µM PU-HZ151. Data are presented as means ±s.e.m. of three experimental repeats. Control, vehicle (DMSO) treated cells. c Western blot analysis of aberrant signaling pathway inhibition by […]
(also on this page, place not known: MDA‐MB-468ASPC1Kasumi Hep G2 ATP levels %Control MDA‐MB-468ASPC1Kasumi 1Hep G2 β-Actin HSP90α Native-PAGE SDS PAGE 100- β-Actin 1)

T1 sequence (P11712 whole entry): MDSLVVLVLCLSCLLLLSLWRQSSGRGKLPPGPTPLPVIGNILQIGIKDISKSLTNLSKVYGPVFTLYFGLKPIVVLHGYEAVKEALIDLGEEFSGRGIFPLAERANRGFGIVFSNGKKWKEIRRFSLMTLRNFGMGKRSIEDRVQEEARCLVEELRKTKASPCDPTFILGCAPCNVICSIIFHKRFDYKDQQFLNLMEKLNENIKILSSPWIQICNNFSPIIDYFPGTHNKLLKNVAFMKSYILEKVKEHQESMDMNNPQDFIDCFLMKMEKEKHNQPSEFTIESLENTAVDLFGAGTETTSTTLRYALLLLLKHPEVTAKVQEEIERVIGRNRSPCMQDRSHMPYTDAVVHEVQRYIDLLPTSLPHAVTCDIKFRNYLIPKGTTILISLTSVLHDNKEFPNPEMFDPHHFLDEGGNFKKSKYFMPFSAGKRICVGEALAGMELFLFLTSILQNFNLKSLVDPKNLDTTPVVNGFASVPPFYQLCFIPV

For orientation: viability means a read-out of living cells in per cent, often relative to untreated cells. Consider `CC(C)(C)CNCCn1c(Sc2cc3c(cc2I)OCO3)nc2c(N)ncnc21` [Compound 85], for which the “tumor retention by PET” value in data set [1] was “clear retention and visualization of MDA-MB-468 tumors even at 48 h post-injection”; in data set [2], “no signal was noted in ASPC1 tumors”. Moreover, the figures for the “% PU-HZ151 remaining” value at CYP2C9 (15 min), at CYP2C9 (30 min) and at CYP2C9 (60 min) were 70.5%, 54.1% and 36.5%, respectively. In addition, the “inhibition of PU-HZ151 metabolism” value against CYP2C9 (sulfaphenazole) was 23%. Moreover, in the data set with MDA-MB-468 cells (Homo sapiens, MDA-MB-468, MDA-MB-468, 1.95312 nM), the viability at 0.00195312 µM is 97.8%. In addition, the viability at 0.00390625 µM with MDA-MB-468 cells (Homo sapiens, MDA-MB-468, MDA-MB-468, 3.90625 nM) is 107%. In the data set with MDA-MB-468 cells (Homo sapiens, MDA-MB-468, MDA-MB-468, 15.625 nM), the viability at 0.015625 µM turned out to be 107%. Besides, the viability at 0.03125 µM with MDA-MB-468 cells (Homo sapiens, MDA-MB-468, MDA-MB-468, 31.25 nM) turned out to be 34.4%. The viability at 0.125 µM in the data set on MDA-MB-468 cells (Homo sapiens, MDA-MB-468, MDA-MB-468, 125 nM) is 7.51%. Further, the viability at 0.5 µM in the data set on MDA-MB-468 cells (Homo sapiens, MDA-MB-468, MDA-MB-468, 500 nM) was found to be 13.5%. Further, the “Cell viability (ATP levels)” value is 110.592 and 103.375 with MDA-MB-468 cells (1.95312 nM, listed as PU-HZ151, 0.00195312 µM); 119.425 and 107.367 in the data set with MDA-MB-468 cells (3.90625 nM, listed as PU-HZ151, 0.00390625 µM); 108.225 and 84.5333 and 99.0667 in the data set with MDA-MB-468 cells (7.8125 nM, listed as PU-HZ151, 0.0078125 µM); 116.083 and 108.992 in the data set on MDA-MB-468 cells (15.625 nM, listed as PU-HZ151, 0.015625 µM); 42.5333 and 26.2083 in the data set on MDA-MB-468 cells (31.25 nM, listed as PU-HZ151, 0.03125 µM); 4.317 and 13.7833 and 10.55 in the data set with MDA-MB-468 cells (62.5 nM, listed as PU-HZ151, 0.0625 µM). The “Cell viability (ATP levels)” value is 8.242 and 5.217 with MDA-MB-468 cells (125 nM, listed as PU-HZ151, 0.125 µM); 14.6417 and 13.2667 with MDA-MB-468 cells (500 nM, listed as PU-HZ151, 0.5 µM); 13.625 and 13.2667 and 6.525 in the data set with MDA-MB-468 cells (1000 nM, listed as PU-HZ151, 1 µM).
